Key:
human PPARα = biological target: T1, human PPARα (Homo sapiens, UniProt Q07869); assay: PPARα activation, PPRE-controlled luciferase reporter in transfected COS-7 cells; type: cell-based; conditions: 24 hours
T1 construct: expressed in transfected cells; host or cells: COS-7 monkey kidney cells (ATCC CRL-1651)
T1 sequence (Q07869 192-468 limits assumed): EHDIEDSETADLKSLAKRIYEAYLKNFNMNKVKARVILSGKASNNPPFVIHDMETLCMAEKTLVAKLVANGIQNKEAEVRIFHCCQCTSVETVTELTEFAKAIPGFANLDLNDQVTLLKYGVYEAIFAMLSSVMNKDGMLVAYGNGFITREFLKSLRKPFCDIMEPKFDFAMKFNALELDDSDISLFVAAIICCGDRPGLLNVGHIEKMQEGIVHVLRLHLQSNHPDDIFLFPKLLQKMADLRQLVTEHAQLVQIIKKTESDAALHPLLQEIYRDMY
Procedure: To investigate whether macelignan acts as a ligand of PPAR or not, it was tested according to known method (Cell, 68: 879-887, 1992; J. Biol. Chem., 272: 25252-25259, 1997) using a plasmid expressing PPAR and a vector having PPRE-controlled luciferase genes.
Activation of luciferase expression was measured by transfecting COS-7 monkey kidney cells (ATCC CRL-1651) with the PPARα plasmid and pFR-luciferase vector (Stratagene, USA), and then by treating the transfected cells with macelignan isolated from Example 1 for 24 hours. The PPARα plasmid was obtained by isolating polynucleotide encoding the amino acid sequence of amino acids […] (i.e. PPARα ligand-bound domain of the total amino acid sequence of human PPARα (Genbank Acession No. S74349)) with the primers of SEQ ID NO: 1 ([…]) and SEQ ID NO: 2 (TGGGGTACCTGGCTGAT) by RT-PCR. Then, the polynucleotide was cloned between the restriction enzyme sites of BamHI and KpnI of pFA vector (Stratagene, USA). Herein, mRNA used as the template in RT-PCR was obtained by separating the total RNA in cultured Hep G2 (ATCC HB-8065) human liver cells by using TRIZOL (Invitrogen, USA). RT-PCR was performed by synthesizing cDNA using reverse transcriptase at 42° C. for 60 minutes, and 30 cycles of 1 minute at 95° C., 30 seconds at 54° C. and 2 minutes at 72° C. using Taq polymerase. At this time, the test groups treated with different concentrations (1, 5, 10 and 25 μM) of macelignan according to the present invention were compared to the control treated with 0.01% DMSO, and to the groups treated with different concentrations (1, 5, 10 and 25 μM) of Wy-14643 (Sigma, USA), a compound known as a PPARα ligand.

[1] = test system: target genes of PPARγ (LPL, PEPCK); assay: Expression of target genes of PPARγ in 3T3-L1 pre-adipocytes (RT-PCR); type: cell-based, mouse; conditions: 3T3-L1 cells, 24 hours, then MDI medium two days, vs control
Procedure: 3T3-L1 mouse pre-adipocytes (ATCC CL-173) cultured in a DMEM medium containing 10% FBS were pipetted into a multi-well plate in a cell count of 1×10^6 cells per well, and then further cultured for 5 hours. To the medium of the cultured cells, 10 μM of macelignan was added and then left for 24 hours. Adipocyte differentiation was induced by substituting the medium of the cultured cells with MDI (0.5 mM 3-isobutyl-1-methylxanthine, 0.5 uM dexamethasone, 10 ug/ml insulin) medium (Am. J. Physiol. Cell Physiol., 280: C807-C813, 2001). Cells were collected two days after the substitution of MDI medium, and the total RNA was isolated by using TRIZOL (Invitrogen, USA). The total RNA isolated as described above was determined, and cDNA was synthesized by using reverse transcriptase at 42° C. for 20 minutes with same amount of RNA. The cDNA was subjected to RT-PCR by repeating 30 cycles of 95° C./1 minute, 56° C./30 seconds and 72° C./2 minutes with the following primers and Taq polymerase: primers for LPL amplification (SEQ ID NO: 13([…]) and SEQ ID NO: 14([…])), and primers for PEPCK amplification (SEQ ID NO: 15(CAGGCGGCTGAA GAAGTATGA) and SEQ ID NO: 16([…])).

[2] = test system: target genes of PPARγ (CD36, LPL, ACS, GyK); assay: Expression of target genes of PPARγ in liver tissue of obesity/diabetes mouse model; type: in vivo; conditions: 5, 10 and 25 mg/kg oral, 14 days, db/db mice, p<0.05 vs control
Procedure: Liver tissue was removed from the test groups and the controls treated by oral administration in Examples 5˜8. The liver tissue was homogenized in liquid nitrogen and the total RNA was isolated from the crushed tissues by using TRIZOL (Invitrogen, USA). The total RNA isolated as described above was determined and cDNA was synthesized by using reverse transcriptase at 42° C. for 20 minutes. The cDNA was subjected to RT-PCR by repeating the cycle of 95° C./1 minute, 56° C./30 seconds and 72° C./2 minutes thirty times with the following primers and Taq polymerase: primers for CD36 amplification (SEQ ID NO: 5 and SEQ ID NO: 6), primers for LPL amplification (SEQ ID NO: 13 and SEQ ID NO: 14), primers for ACS amplification (SEQ ID NO: 17 (AGCAGAGCTTCGCACGGC) and SEQ ID NO: 18 ([…]) and primers for GyK amplification (SEQ ID NO: 19 ([…]) and SEQ ID NO: 20 ([…])). Expression of the genes was determined by real-time PCR.

COc1cc(C[C@H](C)[C@H](C)Cc2ccc3c(c2)OCO3)ccc1O (single isomer, unassigned) [macelignan]
luciferase activity higher than the control (PPARα) (human PPARα; 25 μM, control 0.01% DMSO): about 14 times | PPARα activity (human PPARα; 1, 5, 10 and 25 μM, p<0.01 vs control): increased PPARα activity in a concentration-dependent manner | mRNA expression of LPL and PEPCK [1]: significantly increased | mRNA expression of CD36, LPL, ACS and GyK in liver tissue [2]: significantly increased

Source: patent US7902254B1, “Method for treating conditions mediated by PPAR using macelignan” (Newtree Co., Ltd., priority 2005, dated 2011)
